According to PubChem BioAssay (NCI):
Where “and” joins values, the source holds several entries; their conditions need not be identical. Identical values can stand only once.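 Five compound concentrations were applied to cells in 96-well plates for 48 hours; endpoints were derived by simple linear interpolation of the resulting dose-response curve. GI50 is the concentration that inhibits growth by half. TGI: concentration producing complete growth inhibition.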

What was measured:
Experiment in all cases: growth of human tumour cells (NCI), 48 h
[1] = tested on: HCC-2998 colon
[2] = tested on: KM12 colon
[3] = tested on: NCI-H23 lung
[4] = tested on: OVCAR-4 ovarian
[5] = tested on: RPMI-8226 leukemia
[6] = tested on: RXF 393 renal
[7] = tested on: SK-MEL-5 melanoma
[8] = tested on: SNB-75 CNS
[9] = tested on: TK-10 renal
[10] = tested on: UO-31 renal

SMILES | GI50 [1] | TGI [1] [µM] | GI50 [2] [µM] | TGI [2] [µM] | GI50 [3] [µM] | TGI [3] [µM] | GI50 [4] | TGI [4] [µM] | GI50 [5] | TGI [5] [µM] | GI50 [6] [µM] | TGI [6] | GI50 [7] [µM] | TGI [7] [µM] | GI50 [8] [µM] | TGI [8] [µM] | GI50 [9] [µM] | TGI [9] [µM] | GI50 [10] | TGI [10]
COc1nc(N(C)O)nc(N(C)O)n1 | 2.25 µM | > 100 | 2.99 | > 100 | 2.14 | > 100 | 2.33 µM | > 100 | 1.32 µM | > 100 | 1.95 | > 100 µM | 1.47 | 23.1 | 10 | > 100 | 1.97 | > 100 | 1.13 µM | > 100 µM
CCc1cccc(C(C)C)c1NC(=O)C(=O)C(Cc1nc2ccccc2[nH]c1=O)C(=O)OC (stereo not drawn) |  | > 100 |  | > 100 |  | > 100 |  | > 100 |  | > 100 |  | > 100 µM |  | > 100 |  | > 100 |  | > 100 |  | > 100 µM
O=[N+]([O-])C1C(c2ccccc2)C12c1ccccc1-c1ccccc12 (stereo not drawn) | 1.49 µM | 6.43 | 0.931 | 16.6 | 2.06 | > 47.2 | 3.56 µM | > 100 | 0.322 µM | 1.51 | 0.845 | 6.24 µM | 0.515 | 9.48 | 0.612 | 14 | 2 | 16.6 | 2.06 µM | 18.8 µM
COC(=O)C1CC2(CC3=C1CCCC3)OCCO2 (stereo not drawn) |  | > 100 |  | > 100 |  | > 100 |  | > 100 |  | > 100 |  | > 100 µM |  | > 100 |  | > 100 |  | > 100 |  | > 100 µM
Nc1nc(SCc2ccccn2)c2ncn(C3CCCC3)c2n1 |  | > 100 |  | > 100 |  | > 100 |  | > 100 |  | > 100 |  | > 100 µM |  | > 100 |  | > 100 |  | > 100 |  | 32.7 µM
COc1cc(C2C=C(c3cccc(NC(C)=O)c3)Nc3ncnn32)cc(OC)c1OC (stereo not drawn) | 0.0566 µM | 0.489 | 0.396 | > 100 | 0.468 | > 100 | 5.8 µM | > 100 | 3.35 µM | 32.5 | 0.576 | > 100 µM | 0.397 | 22.2 | 4.14 | > 100 | 7.55 | > 100 | 33.5 µM | > 100 µM
CN(C)c1cccc2c(S(=O)(=O)N[C@H]3CC[C@H]4[C@@H]5CCc6cc(O)ccc6[C@H]5CC[C@]34C)cccc12 | 3.17 µM | 14.6 |  |  | 2.99 | 22 | 2.8 µM | 13.8 | 2.32 µM | 7.8 | 2.02 | 4.34 µM | 1.53 | 2.9 | 1.75 | 9.52 | 3.2 | 9.82 | 2.02 µM | 7.51 µM
C=C1C(=O)O[C@H]2[C@H]1CC/C(COC(=O)c1cc3cc(F)ccc3[nH]1)=C\CC[C@@]1(C)O[C@@H]21 | 2.02 µM | 3.74 | 1.98 | 5.06 | 1.9 | 4.26 | 1.67 µM | 3.92 | 2 µM | 7.09 | 1.47 | 2.87 µM | 1.85 | 3.84 | 11.1 | 23.9 | 1.83 | 3.3 | 1.2 µM | 2.54 µM
CCOc1ccccc1NC(=O)C(=O)CC(=O)c1c(C)n([O-])c2ccccc2[n+]1=O |  | > 100 |  | > 100 |  | > 100 |  | > 100 |  | > 100 |  | > 100 µM |  | > 100 |  | > 100 |  | > 100 |  | > 100 µM
O=C(NNc1nc(Cl)nc(N2CCN(C(c3ccccc3)c3ccccc3)CC2)n1)c1ccccc1 | 1.63 µM | 3.16 | 4.76 | > 100 | 1.83 | 3.64 | 1.68 µM | 3.14 | 3.79 µM | > 100 | 1.62 | 3.13 µM | 5.35 | 18.8 | 1.43 | 2.75 | > 100 | > 100 | 2.54 µM | 17.2 µM
COc1cccc(C2CC(C)(N3CCCC3)Oc3cc4c(cc32)OCO4)c1O (stereo not drawn) |  | 48.2 |  | > 100 |  | 71 |  | > 100 |  | > 81 |  | > 80.6 µM |  | > 62.4 |  | 53.9 |  | > 93.9 |  | > 96.3 µM
N#Cc1c(-c2nc3ccccc3s2)c(=O)oc2cc(O)ccc12 |  | > 100 |  | 73 |  | > 100 |  | > 100 |  | > 100 |  | > 100 µM |  | 69.8 |  | > 100 |  | > 100 |  | 74.9 µM
CCOc1cc2ncc(C#N)c(Nc3ccc(OCc4cccc(F)c4)c(Cl)c3)c2cc1NC(=O)CC1CCSS1 (stereo not drawn) | 0.484 µM | 0.974 | 0.49 | 1.12 | 2.08 | > 25 | 0.539 µM | 1.36 | > 25 µM | > 25 | 2.35 | 15.8 µM | 2.39 | > 25 | > 25 | > 25 | 0.916 | 6 | 1.04 µM | > 25 µM
COc1cc(/C(C#N)=C/c2ccc3c(c2OC)OCO3)cc2c1OCO2 | 0.182 µM | 10.8 | 0.0424 | > 100 | 0.162 | 11.6 | 1.45 µM | > 100 | 0.146 µM | 33.2 | 0.174 | 0.753 µM | 0.0546 | > 46.4 | 0.0878 | 3.42 | 0.982 | 37.2 | 2.09 µM | > 100 µM
N#Cc1cn(C2OC(CO)C(O)C2O)c2ncnc(N)c12 (stereo not drawn) | 0.0609 µM and 0.0758 µM and < 0.0249 µM |  |  | > 100 | 0.0256 |  | 0.0282 µM and 0.0117 µM |  | 0.0303 µM and 0.045 µM and < 0.01 µM |  | 0.0161 | 0.0958 µM and 0.0708 µM | 0.0416 | 0.109 | 0.232 |  | 0.000405 | 0.0771 | 0.0658 µM and 0.0459 µM and 0.0271 µM | 0.665 µM and 0.819 µM and 1.98 µM
O=C(CCCCCCSc1nc(-c2ccccc2)cc(-c2ccc(Cl)cc2)n1)NO | 2.44 µM | 7.19 | 2.97 | 13.5 | 1.88 | 5.13 | 2.52 µM | 13.5 | 0.64 µM | 6.19 | 1.57 | 3.89 µM | 1.69 | 3.93 | 1.95 | 13.7 | 2.78 | 13.5 | 0.905 µM | 2.65 µM
O=P(O)(CCP(=O)(O)c1ccccc1)c1ccccc1 |  | > 100 |  | > 100 |  | > 100 |  | > 100 |  | > 100 |  | > 100 µM |  | > 100 |  | > 100 |  | > 100 |  | > 100 µM
N#Cc1c(Sc2ccccc2N)cccc1Sc1ccccc1N | 67.7 µM |  | 66.7 |  | 59 |  | 42.1 µM |  | 28.8 µM |  | 72.8 |  | 34.7 |  | 2.24 | 14.5 |  |  | 7.56 µM | 
CNC(=O)c1cc(OC2CCC(NC(=O)Nc3ccc(Cl)c(C(F)(F)F)c3)CC2)ccn1 (stereo not drawn) | 7 µM | 19.2 | 0.713 | 14 | 4.47 | 20.4 | 4.53 µM | 49.6 | 2.86 µM | 14.8 | 10.5 | 24.5 µM | 3.07 | 10.9 | 16 | 38.9 | 18.4 | 49.2 | 7.09 µM | 21.7 µM
Cc1ccc(CNc2c3ccccc3nc3ccccc23)cc1 | 1.72 µM | 3.74 | 3.4 | 12.9 | 1.59 | 4.04 | 1.54 µM | 5.36 | 1.48 µM | 3.86 | 1.68 | 3.41 µM | 1.66 | 3.06 | 0.402 | 6.8 | 2.97 | 12.6 | 1.12 µM | 3.17 µM
C=C1CC2(OC1=O)C(=O)N(CCCCCCCN1C(=O)C3(CC(=C)C(=O)O3)c3ccccc31)c1ccccc12 (stereo not drawn) | 6.44 µM | 13.7 | 3.39 | 11.6 | 3.71 | 11.6 | 2.01 µM | 7.6 | 0.841 µM | 3.33 | 0.86 | 2.06 µM | 7.11 | 13.7 | 6.35 | 19.5 | 2.19 | 8.32 | 3.44 µM | 9.95 µM
COc1cc2c3c(n(C)c(=O)c2cc1OC)-c1cc2c(cc1/C3=C\CCCCCN)OCO2 | 1.28 µM | 39.5 | < 0.01 | 90.1 | 1.62 | 13.3 | 17.4 µM | > 94.1 | 0.1 µM | 1.38 | 7 | 41 µM | 3.12 | 38.2 | 19.5 | > 100 |  | 22.5 | 2.08 µM | > 100 µM
O=C(CN1CCN(c2ncccn2)CC1)Nc1ccc(Cl)cc1C(=O)c1ccccc1Cl | > 100 µM | > 100 | 69 | > 100 | > 100 | > 100 | 43.9 µM | > 100 | 9.51 µM | > 100 | > 100 | > 100 µM | 52.4 | > 100 | 54.9 | > 100 | > 100 | > 100 | > 100 µM | > 100 µM
COc1cccc2cc(C)c(C(=O)c3ccccc3)nc12 |  | > 100 |  | > 100 |  | > 100 |  | > 100 |  | > 100 |  | > 100 µM |  | > 100 |  | > 100 |  | > 100 |  | > 100 µM
C=CCn1c2c(c3ccccc3c1=O)C(=O)c1ccccc1-2 |  | > 100 |  | > 100 |  | > 100 |  | > 100 |  | > 100 |  | > 100 µM |  | > 100 |  | > 100 |  | > 100 |  | > 100 µM
CS(=O)(=O)CCNCc1nc(-c2ccc3ncnc(Nc4ccc(F)c(Cl)c4)c3c2)cs1 | > 25 µM | > 25 | 21.1 | > 25 | > 25 | > 25 | 14.7 µM | > 25 | > 21.4 µM | > 25 | 9.75 | > 25 µM | 11.5 | > 25 | > 18.3 | > 25 | 0.232 | > 25 | 6.81 µM | > 25 µM
CC(=O)C1CC(C)=CCC12C(=O)Nc1ccccc12 (stereo not drawn) |  | > 100 |  | > 100 |  | > 100 |  | > 100 |  | > 100 |  | 68.9 µM |  | > 100 |  | > 100 |  | > 100 |  | 
O=C1NCc2ccc3c(-c4cccc(Cl)c4)c[nH]c3c21 | 0.734 µM | > 22.9 | 0.196 | > 29.7 | 0.484 | > 50 | 1.95 µM | > 50 | 0.257 µM | 49 | 0.296 | > 15.4 µM | 0.269 | > 20.4 |  |  | 7.12 | > 50 | 0.465 µM | > 23.5 µM
O=C(O)c1c(-c2cccc3ccccc23)sc(-c2cccc3ccccc23)c1C(=O)O |  | > 100 |  | > 100 |  | > 100 |  |  |  | > 100 |  | > 100 µM |  | > 100 |  | > 100 |  | > 100 |  | > 100 µM
COc1cc(C2CC(c3ccc(C)cc3)=NN2C=O)ccc1Oc1ccnc2cc(Cl)ccc12 (stereo not drawn) | > 50 µM | > 50 | > 50 | > 50 | 6.93 | > 50 |  |  | > 50 µM | > 50 | 4.16 | 20.5 µM | > 50 | > 50 | 1.13 | 6.92 |  |  | > 50 µM | > 50 µM
